We go through one molecule from patent publication US9988371B2, “Benzimidazole analogues and related methods” (The Arizona Board of Regents, on Behalf of the University …, priority 2014, dated 2018).

For this assay, the target named is VEGFR2 (Homo sapiens, UniProt P35968). The experiment in a line: VEGFR2 autophosphorylation immunoblot in HEK293 cells stimulated with VEGF. Also on record: expressed in transfected cells; host or cells: HEK293. The class given is cell-based. Here is the method: FIG. 4: Photograph of blot showing inhibition of VEGFR2 phosphorylation ectopically expressed in HEK293 cells by indicated doses of Pz-1 or vehicle (NT: not treated). HEK293 cells were transiently transfected with vector expressing VEGFR2. 36 hr following transfection, cells were serum-starved for 12 hr, treated for 2 hr with indicated concentrations of Pz-1 and finally treated with VEGF-A (100 ng/ml) for 15 min. 50 μg of total cell lysates were subjected to immunoblotting with anti-phospho-Y1175 (αpVEGFR2) VEGFR2 antibodies. The blot was normalized using anti-VEGFR2 (αVEGFR2) antibody.
VEGFR2, sequence (P35968 20-1356): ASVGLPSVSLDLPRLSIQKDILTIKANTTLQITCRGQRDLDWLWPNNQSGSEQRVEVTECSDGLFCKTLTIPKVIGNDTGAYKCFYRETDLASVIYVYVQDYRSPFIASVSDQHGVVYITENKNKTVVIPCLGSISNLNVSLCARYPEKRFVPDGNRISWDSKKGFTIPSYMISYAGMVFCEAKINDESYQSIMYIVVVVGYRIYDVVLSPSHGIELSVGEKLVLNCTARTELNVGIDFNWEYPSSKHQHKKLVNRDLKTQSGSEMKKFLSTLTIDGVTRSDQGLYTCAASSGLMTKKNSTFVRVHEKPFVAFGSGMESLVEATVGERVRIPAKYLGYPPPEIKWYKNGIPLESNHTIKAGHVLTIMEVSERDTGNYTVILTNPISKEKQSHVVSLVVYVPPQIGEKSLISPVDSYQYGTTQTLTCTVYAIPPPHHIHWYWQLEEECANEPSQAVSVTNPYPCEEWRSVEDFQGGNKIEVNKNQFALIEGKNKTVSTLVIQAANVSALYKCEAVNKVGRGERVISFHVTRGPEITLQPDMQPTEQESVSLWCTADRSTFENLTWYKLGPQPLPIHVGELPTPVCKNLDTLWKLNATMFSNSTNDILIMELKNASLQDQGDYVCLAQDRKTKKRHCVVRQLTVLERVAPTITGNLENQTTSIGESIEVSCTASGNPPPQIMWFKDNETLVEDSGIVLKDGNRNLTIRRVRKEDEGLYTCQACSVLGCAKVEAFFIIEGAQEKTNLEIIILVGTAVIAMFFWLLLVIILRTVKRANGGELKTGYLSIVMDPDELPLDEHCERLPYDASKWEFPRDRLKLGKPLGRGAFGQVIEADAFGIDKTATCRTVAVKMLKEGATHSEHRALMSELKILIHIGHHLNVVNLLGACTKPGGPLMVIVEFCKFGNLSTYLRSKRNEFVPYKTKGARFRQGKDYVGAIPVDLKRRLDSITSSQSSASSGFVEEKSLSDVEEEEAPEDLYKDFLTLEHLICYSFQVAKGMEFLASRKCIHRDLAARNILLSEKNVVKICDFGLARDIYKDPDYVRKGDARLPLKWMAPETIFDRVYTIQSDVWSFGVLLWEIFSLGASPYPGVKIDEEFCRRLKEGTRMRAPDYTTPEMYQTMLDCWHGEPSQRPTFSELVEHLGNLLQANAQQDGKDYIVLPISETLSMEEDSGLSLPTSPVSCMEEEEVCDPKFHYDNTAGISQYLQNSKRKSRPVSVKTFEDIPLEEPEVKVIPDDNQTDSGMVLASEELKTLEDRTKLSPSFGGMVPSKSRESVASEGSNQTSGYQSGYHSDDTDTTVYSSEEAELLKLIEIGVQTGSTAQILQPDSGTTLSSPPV
The inhibition of RET auto-phosphorylation by Pz-1 was measured in several different cell lines including NIH3T3 fibroblasts expressing RET/C634Y or RET/M918T, TT expressing RET/C634W (MTC), Nthy-ory-3-1 (thyroid, non-transformed with RET; negative control), HEK293/RET/PTC1 (CCDC6-RET that can be found in PTC & lung cancer), HEK293/RET-KIF5B (that can be found in lung cancer), HEK293/RET/PTC3 (NCOA4-RET, that can be found in PTC & lung cancer), and HEK293 transfected with RET/C634R-V804M (FIGS. 1-3). HEK293 cells were transiently transfected with expression vectors comprising the desired mutant. […]
Protein lysates were prepared according to standard procedures. […] Immune complexes were detected with the enhanced chemiluminescence kit (Amersham Pharmacia Biotech, Little Chalfort, UK). […]
(In western blotting, separated proteins are transferred to a membrane and probed.)

On to `Cn1cc(-c2ccc3c(c2)ncn3-c2ccc(CC(=O)Nc3cc(C(C)(C)C)on3)cc2)cn1` [Pz-1, N-(5-(tert-butyl)isoxazol-3-yl)-2-(4-(5-(1-methyl-1H-pyrazol-4-yl)-1H-benzo[d]imidazol-1-yl)phenyl)acetamide], for which the “inhibition of VEGFR2 autophosphorylation” value (1 nM, HEK 293 transiently transfected with VEGFR2, stimulated with VEGF) was “strongly inhibited”. Also, the “inhibition of VEGFR2 auto-phosphorylation” value (nanomolar concentrations) was 90%.
